Type in all cases: biochemical
The target in one experiment is SIK3 (Homo sapiens, UniProt Q9Y2K2). As to the kind of experiment: Enzymatic activity assay SIK3, RapidFire mass spectrometry (phosphorylation of CHK-peptide). Conditions: RapidFire MS, inhibition of SIK3; read-out: SIK3 RF IC50. In outline: (§1)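 Human SIK1/2/3, 5/0.5/1.5 nM; 12.5 mM HEPES pH 7.0, 10 mM Mg acetate, 0.005% BSA. 30 min cpd pre-inc, + CHK-peptide (10 μM soln) + ATP (100 μM soln), 45 min RT. Formic acid stop; RF-MS phospho ratio; IC50.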

The target in the next experiment is SIK2 (Homo sapiens, UniProt Q9H0K1). Put plainly: Enzymatic activity assay SIK2, RapidFire mass spectrometry (phosphorylation of CHK-peptide). Conditions: RapidFire MS, inhibition of SIK2; read-out: SIK2 RF IC50. The method in brief: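 Read-out is the summed phospho-species fraction of CHK-peptide by RapidFire mass spectrometry, normalized between DMSO and 1 μM YKL-05-099. The reaction used 0.5 nM SIK2, 100 μM ATP and 10 μM peptide solutions in HEPES pH 7.0/10 mM magnesium acetate for 45 min at ambient temperature.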

In a further experiment the target is SIK1 (Homo sapiens, UniProt P57059). Put plainly: Enzymatic activity assay SIK1, RapidFire mass spectrometry (phosphorylation of CHK-peptide). The conditions noted are these: RapidFire MS, inhibition of SIK1; read-out: SIK1 RF IC50. The method in brief:
as §1

SIK3, sequence (Q9Y2K2 whole entry): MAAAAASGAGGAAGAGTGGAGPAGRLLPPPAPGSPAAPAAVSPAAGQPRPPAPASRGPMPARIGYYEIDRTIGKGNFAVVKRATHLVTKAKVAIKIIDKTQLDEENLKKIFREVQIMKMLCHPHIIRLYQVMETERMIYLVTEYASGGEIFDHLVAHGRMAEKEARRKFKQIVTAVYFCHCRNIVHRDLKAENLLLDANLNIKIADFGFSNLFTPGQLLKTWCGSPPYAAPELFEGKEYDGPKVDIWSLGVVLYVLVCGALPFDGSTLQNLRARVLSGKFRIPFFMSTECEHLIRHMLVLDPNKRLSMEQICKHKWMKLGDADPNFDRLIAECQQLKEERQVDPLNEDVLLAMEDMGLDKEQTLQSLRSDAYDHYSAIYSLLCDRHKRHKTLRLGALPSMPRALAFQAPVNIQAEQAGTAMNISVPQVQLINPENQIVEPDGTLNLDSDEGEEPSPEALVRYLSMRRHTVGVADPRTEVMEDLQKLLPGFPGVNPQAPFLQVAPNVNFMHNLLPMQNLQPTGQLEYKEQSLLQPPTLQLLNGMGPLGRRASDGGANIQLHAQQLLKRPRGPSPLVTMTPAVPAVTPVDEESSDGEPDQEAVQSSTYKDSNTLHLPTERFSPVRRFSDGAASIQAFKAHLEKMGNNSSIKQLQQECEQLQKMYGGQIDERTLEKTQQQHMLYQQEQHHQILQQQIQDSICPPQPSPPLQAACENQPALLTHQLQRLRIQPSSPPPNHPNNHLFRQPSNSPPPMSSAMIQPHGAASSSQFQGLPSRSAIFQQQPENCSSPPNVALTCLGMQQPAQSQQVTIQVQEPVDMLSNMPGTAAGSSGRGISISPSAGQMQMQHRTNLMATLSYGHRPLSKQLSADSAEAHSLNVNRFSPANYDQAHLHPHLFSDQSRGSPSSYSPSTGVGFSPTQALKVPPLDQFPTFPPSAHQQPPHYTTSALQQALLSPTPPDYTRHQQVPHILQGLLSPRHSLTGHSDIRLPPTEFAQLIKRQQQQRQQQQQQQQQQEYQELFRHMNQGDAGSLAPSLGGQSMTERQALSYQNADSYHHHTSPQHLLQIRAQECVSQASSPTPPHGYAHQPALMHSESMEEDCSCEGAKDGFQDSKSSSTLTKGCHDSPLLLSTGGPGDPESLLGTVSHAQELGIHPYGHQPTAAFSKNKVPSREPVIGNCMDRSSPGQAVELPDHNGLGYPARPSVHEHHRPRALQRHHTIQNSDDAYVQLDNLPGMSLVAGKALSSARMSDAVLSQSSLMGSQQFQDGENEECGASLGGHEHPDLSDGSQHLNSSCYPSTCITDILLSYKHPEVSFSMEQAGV
SIK2, sequence (Q9H0K1 whole entry): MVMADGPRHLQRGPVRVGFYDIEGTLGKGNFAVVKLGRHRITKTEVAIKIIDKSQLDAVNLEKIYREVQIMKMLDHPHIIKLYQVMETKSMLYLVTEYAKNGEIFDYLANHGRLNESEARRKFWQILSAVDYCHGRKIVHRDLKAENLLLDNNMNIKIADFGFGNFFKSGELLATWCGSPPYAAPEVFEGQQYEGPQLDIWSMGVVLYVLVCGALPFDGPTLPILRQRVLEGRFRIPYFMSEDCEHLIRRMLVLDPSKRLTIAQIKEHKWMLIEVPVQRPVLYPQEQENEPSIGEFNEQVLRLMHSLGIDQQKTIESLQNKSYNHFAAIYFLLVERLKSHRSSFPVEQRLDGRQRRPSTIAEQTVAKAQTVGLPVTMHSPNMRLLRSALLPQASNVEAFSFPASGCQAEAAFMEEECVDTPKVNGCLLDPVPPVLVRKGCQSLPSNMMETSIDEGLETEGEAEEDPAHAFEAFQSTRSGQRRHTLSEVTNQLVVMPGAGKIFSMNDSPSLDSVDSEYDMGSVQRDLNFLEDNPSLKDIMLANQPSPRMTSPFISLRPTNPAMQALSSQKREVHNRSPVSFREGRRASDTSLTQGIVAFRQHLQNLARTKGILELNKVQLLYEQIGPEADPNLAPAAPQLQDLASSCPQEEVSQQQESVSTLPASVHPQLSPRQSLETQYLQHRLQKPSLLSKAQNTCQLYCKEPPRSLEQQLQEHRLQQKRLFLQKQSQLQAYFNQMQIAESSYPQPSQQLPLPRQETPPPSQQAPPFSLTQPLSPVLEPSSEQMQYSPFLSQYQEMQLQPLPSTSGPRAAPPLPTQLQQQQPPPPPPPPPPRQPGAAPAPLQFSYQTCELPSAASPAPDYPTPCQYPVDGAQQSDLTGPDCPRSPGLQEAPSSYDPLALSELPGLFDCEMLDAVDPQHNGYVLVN
SIK1, sequence (P57059 whole entry): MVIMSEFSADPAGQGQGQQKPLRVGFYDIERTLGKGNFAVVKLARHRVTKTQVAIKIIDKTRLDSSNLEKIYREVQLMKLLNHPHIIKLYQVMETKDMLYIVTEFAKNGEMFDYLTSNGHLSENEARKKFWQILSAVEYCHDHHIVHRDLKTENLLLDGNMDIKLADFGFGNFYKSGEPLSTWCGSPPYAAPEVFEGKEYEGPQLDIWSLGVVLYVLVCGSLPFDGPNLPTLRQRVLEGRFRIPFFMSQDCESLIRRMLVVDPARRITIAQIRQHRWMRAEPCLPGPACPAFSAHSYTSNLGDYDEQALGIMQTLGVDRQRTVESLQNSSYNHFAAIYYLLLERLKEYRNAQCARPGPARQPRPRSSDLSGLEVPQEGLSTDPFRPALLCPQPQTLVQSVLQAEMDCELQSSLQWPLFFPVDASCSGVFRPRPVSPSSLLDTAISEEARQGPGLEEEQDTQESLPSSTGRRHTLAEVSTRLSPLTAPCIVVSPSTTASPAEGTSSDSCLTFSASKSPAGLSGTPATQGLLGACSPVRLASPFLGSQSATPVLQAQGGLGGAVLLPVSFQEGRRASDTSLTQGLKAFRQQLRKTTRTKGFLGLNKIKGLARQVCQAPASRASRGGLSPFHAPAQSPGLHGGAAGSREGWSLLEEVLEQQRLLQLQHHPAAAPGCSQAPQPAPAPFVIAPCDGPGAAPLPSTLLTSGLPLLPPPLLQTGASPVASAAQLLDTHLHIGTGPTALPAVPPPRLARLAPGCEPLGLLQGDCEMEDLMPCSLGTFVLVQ

As for `Cc1cc(C#N)nn1-c1nc(-n2cnc3ccc(CN4CCCS4(=O)=O)cc32)ccc1C(C)O` (stereo not drawn) [Example 202, 1-[6-[6-[(1,1-Dioxo-1,2-thiazolidin-2-yl)methyl]benzimidazol-1-yl]-3-(1-hydroxyethyl)-2-pyridyl]-5-methyl-pyrazole-3-carbonitrile], the IC50 is 0.205 µM on SIK3, 0.5 µM on SIK2 and 1.02 µM on SIK1.

On to `Cc1ccc(Nc2cc3ncn(-c4ccc(C(C)O)c(-n5nc(OC(F)F)cc5C)n4)c3cc2OC2COC2)nn1` (stereo not drawn) [Example 357, 1-[2-[3-(difluoromethoxy)-5-methyl-pyrazol-1-yl]-6-[5-[(6-methylpyridazin-3-yl)amino]-6-(oxetan-3-yloxy)benzimidazol-1-yl]-3-pyridyl]ethanol], for which the figures for the half-inhibitory concentration (IC50) at SIK3, on SIK2 and on SIK1 were 0.0017 µM, 0.001 µM and 0.019 µM, respectively.

Take `Cc1ccc(Nc2ccc3c(c2)ncn3-c2ccc(C(C)O)c(-c3cc(C#N)nn3C)n2)nn1` (stereo not drawn) [Example 255, 5-[3-(1-hydroxyethyl)-6-[5-[(6-methylpyridazin-3-yl)amino]benzimidazol-1-yl]-2-pyridyl]-1-methyl-pyrazole-3-carbonitrile]: the IC50 at SIK3 is 0.0304 µM; at SIK2, 0.194 µM; on SIK1 it was 12.8 µM.

For the compound `Cc1nnc(Nc2cc3ncn(-c4ccc(C(C)O)c(-n5nc(C#N)cc5C)n4)c3cc2F)s1` (stereo not drawn) [Example 385, 1-[6-[6-fluoro-5-[(5-methyl-1,3,4-thiadiazol-2-yl)amino]benzimidazol-1-yl]-3-(1-hydroxyethyl)-2-pyridyl]-5-methyl-pyrazole-3-carbonitrile], the IC50 on SIK3 is 0.0025 µM; at SIK2, 0.0028 µM; on SIK1, 0.022 µM.

On to `Cc1cc(C#N)nn1-c1nc(-n2cnc3cc(N4CCN(C)CC4)ccc32)ccc1C(C)O` (stereo not drawn) [Example 65, 1-[3-(1-Hydroxyethyl)-6-[5-(4-methylpiperazin-1-yl)benzimidazol-1-yl]-2-pyridyl]-5-methyl-pyrazole-3-carbonitrile], for which the IC50 is 0.0819 µM at SIK3, 0.0637 µM at SIK2 and 0.652 µM at SIK1.

As to `Cc1ccc(Nc2ccc3ncn(-c4ccc(C(C)O)c(N5CC[C@@H]6NCC[C@H]65)n4)c3c2)nn1` (stereo partly drawn) [Example 125, 1-[6-[6-[(6-Methylpyridazin-3-yl)amino]benzimidazol-1-yl]-2-[(3aR,6aS)-2,3,3a,5,6,6a-hexahydro-1H-pyrrolo[3,2-b]pyrrol-4-yl]-3-pyridyl]ethanol; formic acid], the IC50 on SIK3 came out at 0.895 µM; at SIK2, 0.863 µM; at SIK1 it was 0.981 µM.

With `Cc1cc(C#N)nn1-c1nc(-n2cnc3ccc(-c4ccc5c(n4)C(=O)N(C)C5)cc32)ccc1C(C)O` (stereo not drawn) [Example 365, 1-[3-(1-hydroxyethyl)-6-[6-(6-methyl-7-oxo-5H-pyrrolo[3,4-b]pyridin-2-yl)benzimidazol-1-yl]-2-pyridyl]-5-methyl-pyrazole-3-carbonitrile], the results for the IC50 at SIK3, on SIK2 and at SIK1 were 0.446 µM, 0.0446 µM and 0.02 µM, respectively.

With `Cc1ccc(Nc2cc3ncn(-c4ccc(C(C)O)c(-c5cn(CC6CC6)nc5C)n4)c3cc2F)nn1` (stereo not drawn) [Example 356, 1-[2-[1-(cyclopropylmethyl)-3-methyl-pyrazol-4-yl]-6-[6-fluoro-5-[(6-methylpyridazin-3-yl)amino]benzimidazol-1-yl]-3-pyridyl]ethanol], the IC50 came to 0.0017 µM at SIK3, 0.0009 µM at SIK2 and 0.245 µM on SIK1.

For the compound `Cc1ccc(Nc2ccc3c(c2)ncn3-c2ccc(CO)c(-c3cnn(CC(F)(F)F)c3C)n2)nn1` [Example 316, [6-[5-[(6-methylpyridazin-3-yl)amino]benzimidazol-1-yl]-2-[5-methyl-1-(2,2,2-trifluoroethyl)pyrazol-4-yl]-3-pyridyl]methanol], the IC50 is 0.0046 µM at SIK3, 0.0151 µM at SIK2 and 0.975 µM on SIK1.

The values are drawn from patent US20240383875A1, “Benzimidazole Pyridine Derivatives” (Hoffmann-La Roche Inc., priority 2022, published 2024).
